Measurements: patent EP3029024A1, “2-(2-aminophenoxy)-3-chloronaphthalene-1,4-dione compounds having orexin 2 receptor agonist activity” (Ferrer Internacional, S.A., priority 2014, dated 2016)

Molecular target: T1, OX2 receptor (Homo sapiens, UniProt O43614)
T1 construct: expressed in transfected cells; host or cells: unnamed cell line stably co-expressing apoaequorin and OX2 receptor, cultured in Ham's F12 with G418 and Zeocin
T1 sequence (O43614 1-444): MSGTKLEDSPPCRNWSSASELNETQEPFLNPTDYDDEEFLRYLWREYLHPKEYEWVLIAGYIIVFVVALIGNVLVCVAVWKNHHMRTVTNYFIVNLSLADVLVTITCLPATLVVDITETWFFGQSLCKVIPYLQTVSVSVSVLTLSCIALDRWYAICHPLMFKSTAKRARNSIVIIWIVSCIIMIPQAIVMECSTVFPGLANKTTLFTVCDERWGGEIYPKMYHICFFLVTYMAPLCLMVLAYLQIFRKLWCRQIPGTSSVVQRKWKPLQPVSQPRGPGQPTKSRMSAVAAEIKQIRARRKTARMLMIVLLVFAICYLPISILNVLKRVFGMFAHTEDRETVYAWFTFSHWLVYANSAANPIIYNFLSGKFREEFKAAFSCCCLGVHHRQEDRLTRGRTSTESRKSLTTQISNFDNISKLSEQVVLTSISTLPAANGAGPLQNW
Assay: Functional assay for in vitro evaluation of OX2 receptor agonist activity (aequorin light emission, increase in intracellular calcium)
Type: cell-based
Settings: OX2R Agonism, Table 1; cell line co-expressing apoaequorin and OX2 receptor; related to the maximum effect induced by the orexin peptide
From the text: The method of choice for the in vitro evaluation of OX2 receptor agonists is the measure of the increase in intracellular calcium induced by the activation of the receptor. OX2 receptor is stably expressed in a cell line co-expressing apoaequorin, a photoprotein which needs a hydrophobic prosthetic group, coelenterazine, to be converted to aequorin, the active enzyme. After calcium binding, aequorin oxidizes coelenterazine to coelenteramide with the production of CO2 and emission of light. The measurement of light emission after the addition of agonists reflects its ability to activate the receptor.
Cell line co-expressing apoaequorin and OX2 receptor were cultured as a monolayer at 37°C and 5% CO2 in complete Ham's F12 medium supplemented with FBS 10%, penicillin (100 IU/ml)-streptomycin (100 µg/ml), Geneticin (G418, 400 µg/ml) and Zeocin (250 µg/ml). Before starting the experiment, cells were incubated with a medium without antibiotics for 18 hours. After this incubation, the cells were detached from the culture plates and they were resuspended in DMEM-F12/0.1% BSA at a final concentration of 5x10^6 cells/ml. Cells were then incubated with 5 µM of coelenterazine at room temperature on a vertical rotating wheel for at least 3 hours. Following incubation with coelenterazine cells were diluted 1:10 with DMEM-F12/0.1% BSA and incubated in magnetic agitation for 1 hour.
Dose-response curves were performed for each compound. 50 µl of pre-loaded cells were injected over test compounds in a 96 wells plate. Results were expressed as the concentration of the compound where 50% of its maximal effect is observed (EC50), related to the maximum effect induced by the orexin peptide on the receptor. OX2R Agonism

| SMILES | EC50 |
| --- | --- |
| COc1ccc(N)c(OC2=C(Cl)C(=O)c3ccccc3C2=O)c1Cl [Example 2, 2-(6-amino-2-chloro-3-methoxyphenoxy)-3-chloronaphthalene-1,4-dione] | 50 nM |
| Cc1c(Cl)ccc(OC2=C(Cl)C(=O)c3ccccc3C2=O)c1N [Example 3, 2-(2-amino-4-chloro-3-methylphenoxy)-3-chloronaphthalene-1,4-dione] | 110 nM |
| Cc1cc(Br)cc(N)c1OC1=C(Cl)C(=O)c2ccccc2C1=O [Example 6, 2-(2-amino-4-bromo-6-methylphenoxy)-3-chloronaphthalene-1,4-dione] | 90 nM |

Now from value to molecule:

| EC50 | SMILES |
| --- | --- |
| 28 nM | COc1ccc(N)c(OC2=C(Cl)C(=O)c3ccccc3C2=O)c1C [Example 1, 2-(6-amino-3-methoxy-2-methylphenoxy)-3-chloronaphthalene-1,4-dione] |
| 60 nM | Cc1cc(C)c(N)c(OC2=C(Cl)C(=O)c3ccccc3C2=O)c1 [Example 4, 2-(2-amino-3,5-dimethylphenoxy)-3-chloronaphthalene-1,4-dione] |
| 80 nM | Cc1cc(Cl)cc(N)c1OC1=C(Cl)C(=O)c2ccccc2C1=O [Example 5, 2-(2-amino-4-chloro-6-methylphenoxy)-3-chloronaphthalene-1,4-dione] |
| 50 nM | Cc1ccc(OC2=C(Cl)C(=O)c3ccccc3C2=O)c(N)c1C [Example 7, 2-(2-amino-3,4-dimethylphenoxy)-3-chloronaphthalene-1,4-dione] |
| 58 nM | Cc1cc(C)c(N)c(OC2=C(Cl)C(=O)c3ccccc3C2=O)c1C [Example 8, 2-(2-amino-3,5,6-trimethylphenoxy)-3-chloronaphthalene-1,4-dione] |
| 130 nM | Cc1cc(C)c(OC2=C(Cl)C(=O)c3ccccc3C2=O)c(N)c1C [Example 9, 2-(2-amino-3,4,6-trimethylphenoxy)-3-chloronaphthalene-1,4-dione] |

Same assay, conditions: OX2R Agonism, Table 2, comparative examples (compounds described in PCT/EP2014/062349); same experimental methodology

| SMILES | EC50 |
| --- | --- |
| Nc1ccccc1OC1=C(Cl)C(=O)c2ccccc2C1=O [Example C1] | 516 nM |
| Cc1ccc(OC2=C(Cl)C(=O)c3ccccc3C2=O)c(N)c1 [Example C2] | 242 nM |
| Nc1cc(Cl)ccc1OC1=C(Cl)C(=O)c2ccccc2C1=O [Example C3] | 737 nM |
| Nc1ccc(Cl)cc1OC1=C(Cl)C(=O)c2ccccc2C1=O [Example C4] | 747 nM |
| Nc1cc(F)ccc1OC1=C(Cl)C(=O)c2ccccc2C1=O [Example C5] | 578 nM |
| COC(=O)c1ccc(OC2=C(Cl)C(=O)c3ccccc3C2=O)c(N)c1 [Example C6] | 4060 nM |
| CC(=O)c1ccc(OC2=C(Cl)C(=O)c3ccccc3C2=O)c(N)c1 [Example C7] | 4370 nM |
| Nc1cc(C(F)(F)F)ccc1OC1=C(Cl)C(=O)c2ccccc2C1=O [Example C8] | 700 nM |
| Nc1ccc(F)cc1OC1=C(Cl)C(=O)c2ccccc2C1=O [Example C9] | 390 nM |
| Nc1cc(Cl)cc(Cl)c1OC1=C(Cl)C(=O)c2ccccc2C1=O [Example C11] | 390 nM |

The next lines start with the values.

| EC50 | SMILES |
| --- | --- |
| 670 nM | Cc1cc(N)c(OC2=C(Cl)C(=O)c3ccccc3C2=O)cc1C [Example C10] |
| 150 nM | Cc1ccc(C)c(OC2=C(Cl)C(=O)c3ccccc3C2=O)c1N [Example C12] |
